Literature values in US20180161366A1, “METHODS OF OBTAINING MONONUCLEAR BLOOD CELLS AND USES THEREOF” (Biokine Therapeutics Ltd., priority 2015, published 2018).

B1: G-CSF: mobilization agent (protein, UniProt P09919 31-207, looked up)
Granulocyte …: TPLGPASSLPQSFLLKCLEQVRKIQGDGAALQEKLVSECATYKLCHPEELVLLGHSLGIPWAPLSSCPSQALQLAGCLSQLHSGLFLYQGLLQALEGISPELGPTLDTLQLDVADFATTIWQQMEELGMAPALQPTQGAMPAFASAFQRRAGGVLVASHLQSFLEVSYRVLRHLAQP

Conditions: from DiPersio Blood 2008; cited from earlier work

Molecule | B cells (CD19), Median (range) | Cytotoxic T cells (CD3+CD8+), Median (range) | HSPC (CD34+), Median (range) | NK cells (CD3−CD56+), Median (range) | T cells (CD3+), Median (range) | T helper cells (CD3+CD4+), Median (range)
c1cc(CN2CCCNCCNCCCNCC2)ccc1CN1CCCNCCNCCCNCC1 [AMD3100] | 1.0 (0.2-2.4) × 10^8/Kg | 1.3 (0.4-3.4) × 10^8/Kg | 2.9 (1.2-6.3) × 10^6/Kg | 0.3 (0.1-1.0) × 10^8/Kg | 4.6 (1.5-7.8) × 10^8/Kg | 3.2 (1-5.7) × 10^8/Kg
B1 | – | 0.4 (0.4-3.4) × 10^8/Kg | 4.2 (2.5-18) × 10^6/Kg | 0.2 (0.2-0.5) × 10^8/Kg | 1.3 (1.2-6.8) × 10^8/Kg | 1.1 (0.7-3.2) × 10^8/Kg
